The results in this text go back to patent US20240199571A1, “THIOPHENE COMPOUND AND APPLICATION THEREOF” (MEDSHINE DISCOVERY INC., priority 2021, published 2024).

Structures can show the parent of a compound that is named as a salt.

Test system in one data set: not listed separately
The experiment in a line: Experiment 3: pharmacokinetic evaluation in CD-1 mice (IV and oral). Format: in vivo. To be noted: mouse, plasma; female CD-1 mice; IV 1 mg/kg; read-out: Clearance rate CL. As for the experimental part:
Experiment 3: Pharmacokinetic Evaluation of Compounds
Experimental purpose: To test the pharmacokinetics of compounds in CD-1 mice in vivo
CD-1 mice (male/female, 7 to 9 weeks old, Shanghai SLAC)
The pharmacokinetic characteristics of the compounds in rodents after intravenous injection and oral administration were tested according to the standard protocol. In the experiment, the candidate compound was formulated into clear solutions, and a single intravenous injection and oral administration were given to mice. The vehicle for intravenous injection and oral administration was a mixed vehicle composed of 10% dimethyl sulfoxide and 90% hydroxypropyl β-cyclodextrin with a content of 10%. In this project, four male/female CD-1 mice were used. Two mice were injected intravenously at a dose of 1 mg/kg, and plasma samples were collected at 0.083, 0.25, 0.5, 1, 2, 4, 8, and 24 hours after administration; the other two were administered orally by gavage at a dose of 2 mg/kg, and plasma samples were collected at 0.25, 0.5, 1, 2, 4, 8, and 24 hours after administration. The samples were centrifuged at 3200 g for 10 minutes at 4° C., and plasma samples were obtained by separating the supernatant. A methanol solution containing internal standard with 20 times the volume of the sample was added thereto to precipitate the protein, and the mixture was centrifuged at 12000 g for 15 minutes at 4° C. 50 μL of the supernatant was taken and transferred to a 96-well plate and centrifuged again. The supernatant was taken for sampling. The plasma concentration was quantitatively analyzed using LC-MS/MS analysis method, and pharmacokinetic parameters, such as peak concentration (Cmax), clearance rate (CL), half-life (T1/2), volume of distribution at steady state (Vdss), area under drug-time curve (AUC0-last), bioavailability (F).
As to `COc1ccc(-c2sc(C(=O)N3C4CCC3C(N)C4)cc2-c2ccc(C#N)c(F)c2)cc1F` (racemic) [Hydrochloride of compound 2], the clearance is 19.6 mL/min/kg.

For the compound `COc1ccc(-c2sc(C(=O)N3CCC[C@@H](N)C3)cc2-c2ccc(C#N)c(F)c2)cc1F` [Hydrochloride of compound 1], the clearance was 17.8 mL/min/kg.

Consider `COc1ccc(-c2sc(C(=O)N3CCCNCC3)cc2-c2ccc(C#N)c(F)c2)cc1F` [Hydrochloride of compound 6], for which the clearance was determined as 18 mL/min/kg.

For the compound `COc1ccc(-c2sc(C(=O)N3CC[C@H](N)C3)cc2-c2ccc(C#N)c(F)c2)cc1F` [Hydrochloride of compound 7], the clearance came out at 20.9 mL/min/kg.

Still in this data set, the particulars now being: mouse, plasma; female CD-1 mice; IV 1 mg/kg; read-out: Half life T1/2 (IV, h) (converted).
Take `COc1ccc(-c2sc(C(=O)N3C4CCC3C(N)C4)cc2-c2ccc(C#N)c(F)c2)cc1F` (racemic) [Hydrochloride of compound 2]: the half-life is 5.23 h.

Regarding `COc1ccc(-c2sc(C(=O)N3CCC[C@@H](N)C3)cc2-c2ccc(C#N)c(F)c2)cc1F` [Hydrochloride of compound 1], the half-life is 5.59 h.

For the compound `COc1ccc(-c2sc(C(=O)N3CCCNCC3)cc2-c2ccc(C#N)c(F)c2)cc1F` [Hydrochloride of compound 6], the half-life was 5.37 h.

As to `COc1ccc(-c2sc(C(=O)N3CC[C@H](N)C3)cc2-c2ccc(C#N)c(F)c2)cc1F` [Hydrochloride of compound 7], the half-life was 3.74 h.

The same data set, now with this note: mouse, plasma; female CD-1 mice; IV 1 mg/kg; read-out: Volume of distribution at steady state Vdss.
`COc1ccc(-c2sc(C(=O)N3C4CCC3C(N)C4)cc2-c2ccc(C#N)c(F)c2)cc1F` (racemic) [Hydrochloride of compound 2]: the Vd amounted to 7.9 L/kg.

`COc1ccc(-c2sc(C(=O)N3CCC[C@@H](N)C3)cc2-c2ccc(C#N)c(F)c2)cc1F` [Hydrochloride of compound 1]: the Vd was 7.66 L/kg.

For `COc1ccc(-c2sc(C(=O)N3CCCNCC3)cc2-c2ccc(C#N)c(F)c2)cc1F` [Hydrochloride of compound 6], the Vd was 7.76 L/kg.

`COc1ccc(-c2sc(C(=O)N3CC[C@H](N)C3)cc2-c2ccc(C#N)c(F)c2)cc1F` [Hydrochloride of compound 7]: the Vd was 6.19 L/kg.

The data set is the same for the next values; noted with them: mouse, plasma; female CD-1 mice; PO 2 mg/kg vs IV 1 mg/kg; read-out: Bioavailability F (%).
As to `COc1ccc(-c2sc(C(=O)N3C4CCC3C(N)C4)cc2-c2ccc(C#N)c(F)c2)cc1F` (racemic) [Hydrochloride of compound 2], the bioavailability came out at 47.7%.

As to `COc1ccc(-c2sc(C(=O)N3CCC[C@@H](N)C3)cc2-c2ccc(C#N)c(F)c2)cc1F` [Hydrochloride of compound 1], the bioavailability worked out at 47.2%.

Take `COc1ccc(-c2sc(C(=O)N3CCCNCC3)cc2-c2ccc(C#N)c(F)c2)cc1F` [Hydrochloride of compound 6]: the bioavailability worked out at 64%.

`COc1ccc(-c2sc(C(=O)N3CC[C@H](N)C3)cc2-c2ccc(C#N)c(F)c2)cc1F` [Hydrochloride of compound 7]: the bioavailability was 52.4%.

Staying with this data set, now noted: mouse, plasma; female CD-1 mice; PO 2 mg/kg; read-out: Area under drug-time curve AUC0-last PO.
`COc1ccc(-c2sc(C(=O)N3C4CCC3C(N)C4)cc2-c2ccc(C#N)c(F)c2)cc1F` (racemic) [Hydrochloride of compound 2]: the AUC(0-t) is 1.43 µM·h.

On to `COc1ccc(-c2sc(C(=O)N3CCC[C@@H](N)C3)cc2-c2ccc(C#N)c(F)c2)cc1F` [Hydrochloride of compound 1], for which the AUC(0-t) came out at 1.56 µM·h.

Consider `COc1ccc(-c2sc(C(=O)N3CCCNCC3)cc2-c2ccc(C#N)c(F)c2)cc1F` [Hydrochloride of compound 6], for which the AUC(0-t) amounted to 2.52 µM·h.

Take `COc1ccc(-c2sc(C(=O)N3CC[C@H](N)C3)cc2-c2ccc(C#N)c(F)c2)cc1F` [Hydrochloride of compound 7]: the AUC(0-t) amounted to 1.89 µM·h.

The same data set, now with this note: mouse, plasma; female CD-1 mice; single dose, oral 2 mg/kg; read-out: Peak concentration Cmax.
Consider `COc1ccc(-c2sc(C(=O)N3C4CCC3C(N)C4)cc2-c2ccc(C#N)c(F)c2)cc1F` (racemic) [Hydrochloride of compound 2], for which the Cmax was 209 nM.

On to `COc1ccc(-c2sc(C(=O)N3CCC[C@@H](N)C3)cc2-c2ccc(C#N)c(F)c2)cc1F` [Hydrochloride of compound 1], for which the Cmax is 245 nM.

On to `COc1ccc(-c2sc(C(=O)N3CCCNCC3)cc2-c2ccc(C#N)c(F)c2)cc1F` [Hydrochloride of compound 6], for which the Cmax came out at 222 nM.

With `COc1ccc(-c2sc(C(=O)N3CC[C@H](N)C3)cc2-c2ccc(C#N)c(F)c2)cc1F` [Hydrochloride of compound 7], the Cmax was found to be 176 nM.

Still in this data set, the particulars now being: mouse, plasma; male CD-1 mice; IV 1 mg/kg; read-out: Clearance rate CL.
Regarding `COc1ccc(-c2sc(C(=O)N3CCC[C@@H](N)C3)cc2-c2ccc(C#N)c(F)c2)cc1F` [Hydrochloride of compound 1], the clearance turned out to be 16.7 mL/min/kg.

The same data set, now with this note: mouse, plasma; male CD-1 mice; IV 1 mg/kg; read-out: Half life T1/2 (IV, h) (converted).
As for `COc1ccc(-c2sc(C(=O)N3CCC[C@@H](N)C3)cc2-c2ccc(C#N)c(F)c2)cc1F` [Hydrochloride of compound 1], the half-life is 6.13 h.

Still in this data set, the particulars now being: mouse, plasma; male CD-1 mice; IV 1 mg/kg; read-out: Volume of distribution at steady state Vdss.
For the compound `COc1ccc(-c2sc(C(=O)N3CCC[C@@H](N)C3)cc2-c2ccc(C#N)c(F)c2)cc1F` [Hydrochloride of compound 1], the Vd was found to be 8.33 L/kg.

Still in this data set, the particulars now being: mouse, plasma; male CD-1 mice; PO 2 mg/kg vs IV 1 mg/kg; read-out: Bioavailability F (%).
Consider `COc1ccc(-c2sc(C(=O)N3CCC[C@@H](N)C3)cc2-c2ccc(C#N)c(F)c2)cc1F` [Hydrochloride of compound 1], for which the bioavailability came out at 53.9%.

The data set is the same for the next values; noted with them: mouse, plasma; male CD-1 mice; PO 2 mg/kg; read-out: Area under drug-time curve AUC0-last PO.
`COc1ccc(-c2sc(C(=O)N3CCC[C@@H](N)C3)cc2-c2ccc(C#N)c(F)c2)cc1F` [Hydrochloride of compound 1]: the AUC(0-t) came out at 2.24 µM·h.

Staying with this data set, now noted: mouse, plasma; male CD-1 mice; single dose, oral 2 mg/kg; read-out: Peak concentration Cmax.
As to `COc1ccc(-c2sc(C(=O)N3CCC[C@@H](N)C3)cc2-c2ccc(C#N)c(F)c2)cc1F` [Hydrochloride of compound 1], the Cmax came out at 176 nM.

A further data set addresses human LSD1 (Homo sapiens (Human), UniProt O60341). The experiment in a line: Experiment 1A: in vitro LSD1 enzyme activity, enzyme-coupled fluorescence (HRP/Amplex Red), H3K4me peptide 20 μM (Wuhan Heyan). Format: biochemical. To be noted: histone H3K4me peptide 20 μM. As for the experimental part: Experiment 1A: Evaluation of Enzyme Activity
Testing unit: Wuhan Heyan Biomedical Technology Co., Ltd.
The purpose of the assay was to test the in vitro inhibitory activity of the compounds against LSD1. The enzyme used in the assay was human LSD1, and the standard substrate was histone H3K4me peptide (20 μM). The activity of the compounds was determined by the enzyme-coupling fluorescent method by the combined detection of H2O2 generated after the reaction of LSD1 by horseradish peroxidase (HRP) and the fluorescent reagent Amplex Red. Starting from 10 μM, the compounds were 3-fold diluted to detect the IC50 values of the compounds at 10 concentrations. The enzyme and substrate were incubated for 30 minutes before the compound was added to the substrate to start the reaction. Fluorescence detector: EnVision, excitation wavelength: Ex/Em=530/590 nM.
For the compound `COc1ccc(-c2sc(C(=O)N3C4CCC3C(N)C4)cc2-c2ccc(C#N)c(F)c2)cc1F` (racemic) [Hydrochloride of compound 2], inhibition was half-maximal at 122 nM (IC50).

In turn, `COc1ccc(-c2sc(C(=O)N3CCC[C@@H](N)C3)cc2-c2ccc(C#N)c(F)c2)cc1F` [Hydrochloride of compound 1] returned a half-inhibitory concentration (IC50) of 82 nM.

Compound `COc1ccc(-c2sc(C(=O)N3CCC(N)CC3)cc2-c2ccc(C#N)c(F)c2)cc1F` [Hydrochloride of compound 4] came in with an IC50 of 110 nM.

Compound `COc1ccc(-c2sc(C(=O)N3CCNCC3)cc2-c2ccc(C#N)c(F)c2)cc1F` [Hydrochloride of compound 5] had an IC50 of 345 nM.

As to `COc1ccc(-c2sc(C(=O)N3CCCNCC3)cc2-c2ccc(C#N)c(F)c2)cc1F` [Hydrochloride of compound 6], the IC50 was 112 nM.

`COc1ccc(-c2sc(C(=O)N3CC[C@H](N)C3)cc2-c2ccc(C#N)c(F)c2)cc1F` [Hydrochloride of compound 7]: half-maximal inhibition (IC50) was put at 121 nM.

With `COc1ccc(-c2sc(C(=O)N3CCCC[C@@H](N)C3)cc2-c2ccc(C#N)c(F)c2)cc1F` [Hydrochloride of compound 8], 120 nM corresponded to half-maximal inhibition (IC50).

As for `COc1ccc(-c2sc(C(=O)N3CC4CNCC4C3)cc2-c2ccc(C#N)c(F)c2)cc1F` (stereo not shown) [Hydrochloride of compound 9], half-maximal inhibition (IC50) required 118 nM.

`COc1ccc(-c2sc(C(=O)N3CCC4(CCNC4)CC3)cc2-c2ccc(C#N)c(F)c2)cc1F` [Hydrochloride of compound 10] showed a half-inhibitory concentration (IC50) of 192 nM.

Regarding `COc1ccc(-c2sc(C(=O)N3CC[C@@H](N)C3)cc2-c2ccc(C#N)c(F)c2)cc1F` [Hydrochloride of compound 12], the 50% inhibitory concentration (IC50) came out at 393 nM.

In turn, `COc1ccc(-c2sc(C(=O)NC3CC4CCC3N4)cc2-c2ccc(C#N)c(F)c2)cc1F` (stereo not shown) [Hydrochloride of compound 15] came in with an IC50 of 310 nM.

The subject of the next data set is NCI-H1417 cells. The experiment in a line: Experiment 2: inhibition of NCI-H1417 cell proliferation (CellTiter-Glo, 10 days). Format: cell-based. Conditions: Homo sapiens, 240 h, 10 days incubation. In a few lines: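 Cells at 1000 per well exposed to 10-point 3-fold dilutions from 10 μM top concentration for 10 days. Viability by CellTiter-Glo luminescence; inhibition normalized to max/min controls, IC50 from four-parameter fit.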
As to `COc1ccc(-c2sc(C(=O)N3C4CCC3C(N)C4)cc2-c2ccc(C#N)c(F)c2)cc1F` (racemic) [Hydrochloride of compound 2], the half-maximal inhibitory concentration (IC50) came out at 1.75 nM.

In turn, `COc1ccc(-c2sc(C(=O)N3CCC[C@@H](N)C3)cc2-c2ccc(C#N)c(F)c2)cc1F` [Hydrochloride of compound 1] yielded a half-inhibitory concentration (IC50) of 6.88 nM.

For `COc1ccc(-c2sc(C(=O)N3CCC(N)CC3)cc2-c2ccc(C#N)c(F)c2)cc1F` [Hydrochloride of compound 4], the 50% inhibitory concentration (IC50) stood at 30.1 nM.

Compound `COc1ccc(-c2sc(C(=O)N3CCCNCC3)cc2-c2ccc(C#N)c(F)c2)cc1F` [Hydrochloride of compound 6] came in with a 50% inhibitory concentration (IC50) of 37.9 nM.

Regarding `COc1ccc(-c2sc(C(=O)N3CC[C@H](N)C3)cc2-c2ccc(C#N)c(F)c2)cc1F` [Hydrochloride of compound 7], the concentration for half-maximal inhibition (IC50) came out at 20.4 nM. Against the preceding compound, the IC50 is about 1.9-fold lower.

`COc1ccc(-c2sc(C(=O)N3CCCC[C@@H](N)C3)cc2-c2ccc(C#N)c(F)c2)cc1F` [Hydrochloride of compound 8] yielded an IC50 of 8.73 nM. Against the preceding compound, the IC50 is about 2.3-fold lower.

`COc1ccc(-c2sc(C(=O)N3CC4CNCC4C3)cc2-c2ccc(C#N)c(F)c2)cc1F` (stereo not shown) [Hydrochloride of compound 9] gave a concentration for half-maximal inhibition (IC50) of 15.8 nM.

The compound `COc1ccc(-c2sc(C(=O)N3CCC4(CCNC4)CC3)cc2-c2ccc(C#N)c(F)c2)cc1F` [Hydrochloride of compound 10] showed an IC50 of 22.4 nM.

What is called bioavailability is the share of a dose that reaches the circulation, judged against a reference dose that is usually intravenous. By IC50 is commonly meant the midpoint of a concentration-inhibition curve. Read a high IC50 as weaker potency.
